Experiments:
[1] = tested on: bovine serum albumin (BSA); assay: Adjuvant character in the aqueous phase: anti-body level by passive hemagglutination after BSA with the substance; assay type: in vivo; details: Swiss mice, SC; for Log2 hemagglutinating titer, Primary response D 28: 0.5 mg BSA with 0.1 mg substance in isotonic saline, before booster; for Log2 hemagglutinating titer, Secondary response D 36: 0.5 mg BSA with 0.1 mg substance, booster 0.1 mg BSA thirty days later, six days after booster
Procedure: Groups of 8 Swiss mice aged two months receive, by sub-cutaneous injection (SC), 0.5 mg of antigen constituted by bovine serum albumin (BSA) with (0.1 mg) or without the substance under test in an isotonic saline solution. This high dose of antigen, because it is situated at the limit of the paralysing dose with respect to the immune response, results, through this fact, in a weak or nul response to the antigen alone in the controls; it constitutes therefore a severe criterion to establish the activity of an adjuvant substance. Thirty days later, the mice receive, by the same route of administration, a booster containing 0.1 mg of the same antigen.
The anti-body level is determined, before and six days after the booster, by passive hemagglutination using sheep's red blood cells treated with formalin and covered with the antigen under study according to the method described by A. A. HIRATA and M. W. BRANDISS (J. Immunol., 100, 641-648, 1968).
The anty-body titer, represented by the maximum serum dilution agglutinating a given amount of sheep's red blood cells reaches a maximum at the 36th day following the first injection and is estblished in the following manner.

[2] = tested on: Ovalbumin; assay: Adjuvant character in emulsion (FIA): delayed hypersensitivity and specific anti-bodies to ovalbumin; assay type: in vivo, Hartley males; details: 100 μg where printed, no dose given for the methyl ester; for φ mm induration after 48 h: delayed hypersensitivity to 0.025 mg ovalbumin intradermal, 18 days after immunisation with 1 mg ovalbumin in FIA emulsion; for antibodies Log2 μg/ml: serum 21 days after injection, nitrogen precipitatable by ovalbumin, 1 mg ovalbumin in FIA emulsion
Procedure: The tests were carried out on batches of 6 Hartley males of 350 g. The administration was done by intradermal injection into the plantar pad of each of the rear paws. Ovalbumin (constituting the antigen) in the proportion of 1 mg is prepared in 0.1 ml of an emulsion of saline isotonic solution, in an oily phase constituted by the Freund incomplete adjuvant (FIA).
Eighteen days after this immunisation, possible delayed hypersensitivity reactions (HSR) to the antigen were sought by injecting by the intradermal route 0.025 mg of ovalbumin in the side of the animals, […] The diameter in millimiters of the reaction so-caused was measured.
Twenty one days after the injection, the animals were bled. In the serum collected, the contents of specific anti-bodies of the ovalbumin was measured by precipitation of the antibody-antigen complex in the equivalent zone. The amount of protein nitrogen contained in this precipitate was devaluated by the Folin method. The mean values of the contents of antibodies are indicated in the Table of results by the logarithm to base 2. These values express the amount, in micrograms of nitrogen precipitatable by the antigen, per millimiter of serum.

[3] = tested on: rabbit; details: in vivo
Source text: In addition, the eventuality of a pyrogenic effect in the rabbit was sought, by following the protocol of the European Pharmacopoea, Vol. 2, 1971, pages 58-60.

Molecule	Log2 hemagglutinating titer, Primary response D 28 [1]	Log2 hemagglutinating titer, Secondary response D 36 [1]	φ mm induration after 48 h [2]	antibodies Log2 μg/ml [2]	pyrogenic character [3]
CC(=O)N[C@@H]1[C@@H](O[C@H](C)C(=O)N[C@@H](C)C(=O)N[C@H](CCC(=O)O)C(N)=O)[C@H](O)[C@@H](CO)O[C@H]1O [MDP, reference compound]	3.64	8.34 ± 1.34	11.5 ± 2.5 mm	12.31 ± 1.01 Log2 μg/ml	
N-acetyl-muramyl-N-methyl-L-alanyl-D-isoglutamine [MDP-(N--methyl-Ala)]	4.64	9.27 ± 1.19	14 ± 0.8 mm	12.51 ± 0.88 Log2 μg/ml	absence of a pyrogenic character
N-acetyl-muramyl-N-methyl-L-alanyl-D-glutamine-methyl-ester [MDP-(N--methyl-Ala)--OCH3]		5.11	5 ± 2 mm	10.11 ± 0.6 Log2 μg/ml	absence of a pyrogenic character

Source: patent US4427659A, “Muramyl peptide substituted on a peptide nitrogen and medicaments containing the same” (Agence Nationale de Valorisation de la Recherche (ANVAR), priority 1979, dated 1984)
